Patent US5217971A, “Thiazole compounds and pharmaceutical composition comprising the same” (Fujisawa Pharmaceutical Co., Ltd., priority 1989, dated 1993)

Assays:
[1] = system: thrombin; test: Assay for thrombin activity (S-2238 substrate); format: biochemical; settings: concentration 1.0 × 10^-4 M, pH 8.0, 37° C.
Procedure: Thrombin activity was measured using the synthetic peptide substrate (S-2238, Kabivitrum).
After 900 μl of 0.1 M Tris-HCl buffer (pH 8.0), 100 μl of drug solution and 10 μl of 3U/ml thrombin were incubated at 37° C. for 5 min, 2 ml of 100 μM S-2238 was added.
The rate of increase in absorbance at 405 nm due to hydrolysis of S-2238 was measured with a spectrophotometer.
Inhibition (%) of drug was calculated as follows:
Inhibition (%)=(S-B)/A×100
A:Abs/min in the absence of drug
B:Abs/min in the presence of drug

[2] = system: stomachs of the rats; test: Effect on stomach of rats; format: in vivo; settings: 100 mg/kg, oral
[3] = system: rats; test: Acute toxicity in rats by peroral administration; format: in vivo
[4] = system: platelet aggregation; test: Platelet aggregation ex vivo (1), arachidonic acid-induced, PRP after oral administration; format: in vivo, male Hartley guinea-pigs; settings: guinea-pig, oral 1.0 mg/kg, 6 hours after administration, arachidonic acid final 50 μM
Procedure: Male Hartley guinea-pigs weighing about 300 g were used after 24 hours fasting. Six hours after oral administration of the test compound or vehicle of test compound (control), blood was collected into a tube containing 0.1 vol. of 3.8% sodium citrate and prepared platelet rich plasma (PRP).
To the 250 μl of PRP, 5 μl of arachidonic acid (final 50 μM) was added as an aggregation inducer. Aggregation was measured by using an aggregometer (NKK HEMA-TRACER 1).

Structure (SMILES) | Inhibition (%) of thrombin activity [1] [%] | lesion in stomachs of rats [2] | acute toxicity, deaths at 100 mg/kg [3] | Inhibition (%) of platelet aggregation [4] [%]
COc1ccc(-c2nc(C(=O)NC(=N)N)sc2-c2ccc(OC)cc2)cc1 [Example 5, 4,5-bis(4-methoxyphenyl)-2-guanidinocarbonylthiazole] | 92.2 | – | – | –
COc1ccc(-c2nc(C(=O)N3CCN(C)CC3)sc2-c2ccc(OC)cc2)cc1.Cl [Example 1, 4,5-bis(4-methoxyphenyl)-2-(4methylpiperazin-1-yl)carbonylthiazole hydrochloride] | – | No lesion was observed | the dead at dose of 100 mg/kg could not be observed | 100
